In ChEMBL document CHEMBL6153060, “Structure-Based Design of Novel TLR7/8 Agonist Payloads Enabling an Immunomodulatory Conjugate Approach” (ACS Med Chem Lett, 2025):

Assays:
[1] = Metabolic stability in human liver microsomes assessed as compound remaining after 30 mins; format: ADME, Microsome; settings: read-out: Stability
[2] = Metabolic stability in mouse liver microsomes assessed as compound remaining; format: ADME, Microsome

Compound CCC[C@@H](CCO)Nc1nc(N)nc2c3ccccc3n(Cc3cc(CNC[C@@H]4CCOC4)ccc3OC)c12 has a remaining at 0.5 h [1] of 4% and a Stability [2] of 1%.
